According to patent US11524966B1 (Valo Early Discovery, Inc., priority 2017, dated 2022):

What follows are compounds tested against T1, USP25 (USP25-His6, Boston Biochem E-546) (Homo sapiens, UniProt Q9UHP3) (assay: Ubiquitin-Rhodamine 110 Assay for USP25 Activity, Example A-2). Conditions: Ubiquitin-Rhodamine 110 assay, Example A-2; read-out: USP25 A-2 IC50 range.
T1 construct: His6; purchased Boston Biochem E-546
T1 sequence (Q9UHP3 1-1055): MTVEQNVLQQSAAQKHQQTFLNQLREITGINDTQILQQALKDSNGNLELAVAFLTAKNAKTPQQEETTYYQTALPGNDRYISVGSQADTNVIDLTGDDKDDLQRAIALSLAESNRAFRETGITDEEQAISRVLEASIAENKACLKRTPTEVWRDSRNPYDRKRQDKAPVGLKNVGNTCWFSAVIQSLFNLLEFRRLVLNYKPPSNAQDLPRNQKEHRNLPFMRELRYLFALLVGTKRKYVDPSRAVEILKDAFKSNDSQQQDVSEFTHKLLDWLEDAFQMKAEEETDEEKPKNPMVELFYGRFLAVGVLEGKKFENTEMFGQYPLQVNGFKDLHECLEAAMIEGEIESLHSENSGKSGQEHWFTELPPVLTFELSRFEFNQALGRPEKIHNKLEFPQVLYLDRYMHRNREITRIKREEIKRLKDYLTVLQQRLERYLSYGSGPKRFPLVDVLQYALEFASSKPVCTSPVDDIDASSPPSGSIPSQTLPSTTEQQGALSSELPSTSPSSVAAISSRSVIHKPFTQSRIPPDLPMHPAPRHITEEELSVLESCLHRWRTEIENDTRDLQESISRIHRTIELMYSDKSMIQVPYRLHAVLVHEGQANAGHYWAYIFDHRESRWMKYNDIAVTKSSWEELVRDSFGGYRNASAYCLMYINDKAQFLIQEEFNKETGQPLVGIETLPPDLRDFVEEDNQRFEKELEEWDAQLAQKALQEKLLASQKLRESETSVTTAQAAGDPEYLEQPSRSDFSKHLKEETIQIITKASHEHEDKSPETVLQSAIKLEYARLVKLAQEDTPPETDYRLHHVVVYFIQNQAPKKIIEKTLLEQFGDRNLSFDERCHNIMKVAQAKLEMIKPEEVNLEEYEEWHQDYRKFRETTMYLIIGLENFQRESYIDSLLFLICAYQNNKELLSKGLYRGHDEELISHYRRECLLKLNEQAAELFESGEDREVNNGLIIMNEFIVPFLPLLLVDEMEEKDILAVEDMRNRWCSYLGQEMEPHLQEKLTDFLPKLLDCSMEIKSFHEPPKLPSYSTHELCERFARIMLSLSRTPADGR
Assay type: biochemical
Method in brief: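 Steps: compound dilutions (top 25 μM, 3-fold, 10 points) were preincubated 30 min with 75 pM USP25-His6; 25 nM Ub-Rh110 substrate was added under initial-velocity conditions; after 45 min at room temperature, 10 mM citric acid stopped the reaction before fluorescence reading.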

First: COc1ccc2c(N)c(C(=O)N[C@H]3COc4cc(N5CCNCC5)cc(F)c4C3)sc2n1 [Example 10-11, (R)-3-amino-N-(5-fluoro-7-(piperazin-1-yl)chroman-3-yl)-6-methoxythieno[2,3-b]pyridine-2-carboxamide]
Second: Cc1ccc2c(N)c(C(=O)N(C)[C@H]3COc4cc(N5CCNCC5)cc(F)c4C3)sc2n1 [Example 10-15, 3-amino-N-[(3R)-5-fluoro-7-(piperazin-1-yl)-3,4-dihydro-2H-1-benzopyran-3-yl)-N,6-dimethylthieno[2,3-b]pyridine-2-carboxamide]
The IC50 of the first is lower: 0.05 to 0.2 µM for the first, greater than 2 µM for the second.

`Cc1cnc2c(N)c(C(=O)N[C@H]3COc4cc(N5CC6CNCC(C5)O6)cc(F)c4C3)sc2n1` [Example 10-12, N-((3R)-7-(9-oxa-3,7-diazabicyclo[3.3.1]nonan-3-yl)-5-fluorochroman-3-yl)-7-amino-3-methylthieno[2,3-b]pyrazine-6-carboxamide] and `Cc1cc(C)c2c(N)c(C(=O)N[C@H]3COc4cc(N5CC6CNCC(C5)O6)cc(F)c4C3)sc2n1` [Example 10-13, N-((3R)-7-(9-oxa-3,7-diazabicyclo[3.3.1]nonan-3-yl)-5-fluorochroman-3-yl)-3-amino-4,6-dimethylthieno[2,3-b]pyridine-2-carboxamide] fall in the same range of IC50: 0.001 to 0.05 µM for the first, 0.001 to 0.05 µM for the second.

For `Cc1cc(C(F)(F)F)c2c(N)c(C(=O)N[C@H]3COc4cc(N5CCNCC5)cc(F)c4C3)sc2n1` [Example 10-14, (R)-3-amino-N-(5-fluoro-7-(piperazin-1-yl)chroman-3-yl)-6-methyl-4-(trifluoromethyl)thieno[2,3-b]pyridine-2-carboxamide], the IC50 was 0.05 to 0.2 µM.

Same assay, conditions: Ubiquitin-Rhodamine 110 assay, format Example A-2; read-out: USP25 A-2 IC50 range

Compared with `Cc1ccc2c(N)c(C(=O)N[C@H]3COc4cc(N5CC6CCC(C5)N6)c(F)c(F)c4C3)sc2n1` [Example 13-3, N-((3R)-7-(3,8-diazabicyclo[3.2.1]octan-3-yl)-5,6-difluorochroman-3-yl)-3-amino-6-methylthieno[2,3-b]pyridine-2-carboxamide], `Cc1ccc2c(N)c(C(=O)N[C@@H]3COc4cc(N5CC6CCC(C5)N6)c(F)c(F)c4C3)sc2n1` [Example 13-4, N-((3S)-7-(3,8-diazabicyclo[3.2.1]octan-3-yl)-5,6-difluorochroman-3-yl)-3-amino-6-methylthieno[2,3-b]pyridine-2-carboxamide] is lower in IC50: greater than 2 µM for the first, 0.05 to 0.2 µM for the second.

`Cc1ccc2c(N)c(C(=O)N[C@H]3COc4cc(N5CCNCC5)c(Cl)cc4C3)sc2n1` [Example 13-5, (R)-3-amino-N-(6-chloro-7-(piperazin-1-yl)chroman-3-yl)-6-methylthieno[2,3-b]pyridine-2-carboxamide] and `Cc1ccc2c(N)c(C(=O)N[C@@H]3COc4c(ccc(N5CCNCC5)c4Cl)C3)sc2n1` [Example 13-8, (S)-3-amino-N-(8-chloro-7-(piperazin-1-yl)chroman-3-yl)-6-methylthieno[2,3-b]pyridine-2-carboxamide] cannot be ordered by IC50: greater than 2 µM for the first, greater than 2 µM for the second.

First: Cc1ccc2c(N)c(C(=O)N[C@H]3COc4c(ccc(N5CCNCC5)c4Cl)C3)sc2n1 [Example 13_7, (R)-3-amino-N-(8-chloro-7-(piperazin-1-yl)chroman-3-yl)-6-methylthieno[2,3-b]pyridine-2-carboxamide]
Second: Cc1ccc2c(N)c(C(=O)N[C@H]3COc4nc(N5CCNCC5)ccc4C3)sc2n1 [Example 19, (R)-3-Amino-6-methyl-N-(7-(piperazin-1-yl)-3,4-dihydro-2H-pyrano[2,3-b]pyridin-3-yl)thieno[2,3-b]pyridine-2-carboxamide]
The IC50 of the first is lower: 0.05 to 0.2 µM for the first, 0.2 to 2 µM for the second. The first is the more potent here.

`Cc1ccc2c(N)c(C(=O)N[C@H]3COc4cc(N5CCNCC5)ncc4C3)sc2n1` [Example 16, (R)-3-Amino-6-methyl-N-(7-(piperazin-1-yl)-3,4-dihydro-2H-pyrano[3,2-c]pyridin-3-yl)thieno[2,3-b]pyridine-2-carboxamide] and `Cc1ccc2c(N)c(C(=O)N[C@H]3COc4nc(N5CCNCC5)c(F)cc4C3)sc2n1` [Example 20, (R)-3-Amino-N-(6-fluoro-7-(piperazin-1-yl)-3,4-dihydro-2H-pyrano[2,3-b]pyridin-3-yl)-6-methylthieno[2,3-b]pyridine-2-carboxamide] fall in the same range of IC50: 0.2 to 2 µM for the first, 0.2 to 2 µM for the second.

`Cc1ccc2c(N)c(C(=O)N[C@H]3COc4cc(N5CC6CCC(C5)N6)nc(F)c4C3)sc2n1` [Example 17, N-((3R)-7-(3,8-Diazabicyclo[3.2.1]octan-3-yl)-5-fluoro-3,4-dihydro-2H-pyrano[3,2-c]pyridin-3-yl)-3-amino-6-methylthieno[2,3-b]pyridine-2-carboxamide] and `Cc1ccc2c(N)c(C(=O)N[C@H]3COc4c(cnc(N5CC6CCC(C5)N6)c4F)C3)sc2n1` [Example 18, N-((3R)-7-(3,8-Diazabicyclo[3.2.1]octan-3-yl)-8-fluoro-3,4-dihydro-2H-pyrano[3,2-c]pyridin-3-yl)-3-amino-6-methylthieno[2,3-b]pyridine-2-carboxamide] fall in the same range of IC50: 0.05 to 0.2 µM for the first, 0.05 to 0.2 µM for the second.

`CO[C@H]1CN(c2ccc3c(n2)CC[C@H](NC(=O)c2sc4nc(C)cc(C)c4c2N)C3)C[C@@H]1N` [Example 23-3, 3-amino-N-[(6S)-2-[(3S,4S)-3-amino-4-methoxypyrrolidin-1-yl]-5,6,7,8-tetrahydroquinolin-6-yl]-4,6-dimethylthieno[2,3-b]pyridine-2-carboxamide] and `CO[C@H]1CN(c2ccc3c(n2)CC[C@H](NC(=O)c2sc4nc(C)ccc4c2N)C3)C[C@@H]1N` [Example 23-4, 3-amino-N-[(6S)-2-[(3S,4S)-3-amino-4-methoxypyrrolidin-1-yl]-5,6,7,8-tetrahydroquinolin-6-yl]-6-methylthieno[2,3-b]pyridine-2-carboxamide] cannot be ordered by IC50: greater than 2 µM for the first, greater than 2 µM for the second.

`CO[C@H]1CN(c2ccc3c(n2)CC[C@@H](NC(=O)c2sc4nc(C)ccc4c2N)C3)C[C@@H]1N` [Example 23-5, 3-amino-N-[(6R)-2-[(3S,4S)-3-amino-4-methoxypyrrolidin-1-yl]-5,6,7,8-tetrahydroquinolin-6-yl]-6-methylthieno[2,3-b]pyridine-2-carboxamide] showed an IC50 greater than 2 µM.
